Measurements from PubChem BioAssay (NCI).
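How tested: cells in 96-well plates exposed to compound for 48 hours at five concentrations. GI50 = concentration required for 50% inhibition of growth. The concentration for full growth arrest is given as TGI.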

What was measured:
Assay in all cases: NCI anticancer screen, dose series, 48 h
786-0 renal = system: 786-0 renal
A498 renal = system: A498 renal
A549 NSCLC = system: A549 NSCLC
ACHN renal = system: ACHN renal
BT-549 breast = system: BT-549 breast
CAKI-1 renal = system: CAKI-1 renal
CCRF-CEM leukemia = system: CCRF-CEM leukemia
COLO 205 colon = system: COLO 205 colon
DU-145 prostate = system: DU-145 prostate
EKVX NSCLC = system: EKVX NSCLC
HCC-2998 colon = system: HCC-2998 colon
HCT-116 colon = system: HCT-116 colon
HCT-15 colon = system: HCT-15 colon
HL-60(TB) leukemia = system: HL-60(TB) leukemia
HOP-62 NSCLC = system: HOP-62 NSCLC
HOP-92 NSCLC = system: HOP-92 NSCLC
HS 578T breast = system: HS 578T breast
HT29 colon = system: HT29 colon
IGROV1 ovarian = system: IGROV1 ovarian
K-562 leukemia = system: K-562 leukemia
KM12 colon = system: KM12 colon
LOX IMVI melanoma = system: LOX IMVI melanoma
M14 melanoma = system: M14 melanoma
MALME-3M melanoma = system: MALME-3M melanoma
MCF7 breast = system: MCF7 breast
MDA-MB-231 breast = system: MDA-MB-231 breast
MDA-MB-435 = system: MDA-MB-435
MDA-MB-468 breast = system: MDA-MB-468 breast
MOLT-4 leukemia = system: MOLT-4 leukemia
NCI-H226 lung = system: NCI-H226 lung
NCI-H23 lung = system: NCI-H23 lung
NCI-H460 lung = system: NCI-H460 lung
NCI-H522 lung = system: NCI-H522 lung
NCI/ADR-RES ovarian = system: NCI/ADR-RES ovarian
OVCAR-3 ovarian = system: OVCAR-3 ovarian
OVCAR-4 ovarian = system: OVCAR-4 ovarian
OVCAR-5 ovarian = system: OVCAR-5 ovarian
OVCAR-8 ovarian = system: OVCAR-8 ovarian
PC-3 prostate = system: PC-3 prostate
RPMI-8226 leukemia = system: RPMI-8226 leukemia
RXF 393 renal = system: RXF 393 renal
SF-268 CNS = system: SF-268 CNS
SF-295 CNS = system: SF-295 CNS
SF-539 CNS = system: SF-539 CNS
SK-MEL-2 melanoma = system: SK-MEL-2 melanoma
SK-MEL-28 melanoma = system: SK-MEL-28 melanoma
SK-MEL-5 melanoma = system: SK-MEL-5 melanoma
SK-OV-3 ovarian = system: SK-OV-3 ovarian
SN12C renal = system: SN12C renal
SNB-19 CNS = system: SNB-19 CNS
SNB-75 CNS = system: SNB-75 CNS
SR leukemia = system: SR leukemia
SW-620 colon = system: SW-620 colon
T-47D breast = system: T-47D breast
TK-10 renal = system: TK-10 renal
U251 CNS = system: U251 CNS
UACC-257 melanoma = system: UACC-257 melanoma
UACC-62 melanoma = system: UACC-62 melanoma
UO-31 renal = system: UO-31 renal

With CCOc1ccccc1[C@H]1C(C(=O)c2ccc(Cl)cc2)C2(N[C@@H]1c1ccccc1)C(=O)Nc1ccc(Br)cc12 (stereo partly drawn) the GI50 (786-0 renal) was 5.76 µM, the TGI (786-0 renal) was 17.6 µM and the GI50 (A498 renal) was 4.45 µM. For the same compound, the TGI (A498 renal) was 13.7 µM, the GI50 (A549 NSCLC) was 6.58 µM and the TGI (A549 NSCLC) was greater than 34.5 µM. For the same compound, the GI50 (ACHN renal) was 7.25 µM, the TGI (ACHN renal) was greater than 34.5 µM and the GI50 (BT-549 breast) was 5.3 µM. The TGI (BT-549 breast) was 10.8 µM, the GI50 (CAKI-1 renal) was 2.92 µM and the TGI (CAKI-1 renal) was greater than 34.5 µM. For the same compound, the GI50 (CCRF-CEM leukemia) was 22.8 µM, the TGI (CCRF-CEM leukemia) was greater than 34.5 µM and the GI50 (COLO 205 colon) was 5.35 µM. The TGI (COLO 205 colon) was 10.6 µM, the GI50 (DU-145 prostate) was 8.88 µM and the TGI (DU-145 prostate) was 32.2 µM. The GI50 (EKVX NSCLC) was 7.9 µM, the TGI (EKVX NSCLC) was greater than 34.5 µM and the GI50 (HCC-2998 colon) was 4.88 µM. It also gave a TGI (HCC-2998 colon) of 13 µM, a GI50 (HCT-116 colon) of 4.76 µM and a TGI (HCT-116 colon) of 11 µM. It also gave a GI50 (HCT-15 colon) of 7.51 µM, a TGI (HCT-15 colon) of 33.3 µM and a GI50 (HL-60(TB) leukemia) of 4.77 µM. It also gave a TGI (HL-60(TB) leukemia) of 16.3 µM, a GI50 (HOP-62 NSCLC) of 5.62 µM and a TGI (HOP-62 NSCLC) of 13.5 µM. For the same compound, the GI50 (HOP-92 NSCLC) was 5.42 µM, the TGI (HOP-92 NSCLC) was 14.6 µM and the GI50 (HS 578T breast) was 4.77 µM. It also gave a TGI (HS 578T breast) of 15.2 µM, a GI50 (HT29 colon) of 4.46 µM and a TGI (HT29 colon) of 10.1 µM. For the same compound, the GI50 (IGROV1 ovarian) was 4.88 µM, the TGI (IGROV1 ovarian) was 21.2 µM and the GI50 (K-562 leukemia) was 7.41 µM. For the same compound, the TGI (K-562 leukemia) was greater than 34.5 µM, the GI50 (KM12 colon) was 6 µM and the TGI (KM12 colon) was 20.4 µM. It also gave a GI50 (LOX IMVI melanoma) of 4.17 µM, a TGI (LOX IMVI melanoma) of 8.44 µM and a GI50 (M14 melanoma) of 5.55 µM. It also gave a TGI (M14 melanoma) of 14.5 µM, a GI50 (MALME-3M melanoma) of 5.7 µM and a TGI (MALME-3M melanoma) of 12.1 µM. For the same compound, the GI50 (MCF7 breast) was 6.45 µM, the TGI (MCF7 breast) was 29.9 µM and the GI50 (MDA-MB-231 breast) was 4.04 µM. It also gave a TGI (MDA-MB-231 breast) of 8.87 µM, a GI50 (MDA-MB-435) of 5.55 µM and a TGI (MDA-MB-435) of 12.7 µM. For the same compound, the GI50 (MDA-MB-468 breast) was 3.46 µM, the TGI (MDA-MB-468 breast) was 12.6 µM and the GI50 (MOLT-4 leukemia) was 4.46 µM. It also gave a TGI (MOLT-4 leukemia) of 19.8 µM, a GI50 (NCI-H226 lung) of 4.32 µM and a TGI (NCI-H226 lung) of 10.6 µM. It also gave a GI50 (NCI-H23 lung) of 5.43 µM, a TGI (NCI-H23 lung) of 13.8 µM and a GI50 (NCI-H460 lung) of 5.11 µM. For the same compound, the TGI (NCI-H460 lung) was 10.8 µM, the GI50 (NCI-H522 lung) was 4.41 µM and the TGI (NCI-H522 lung) was 13.4 µM. For the same compound, the GI50 (NCI/ADR-RES ovarian) was 5.25 µM, the TGI (NCI/ADR-RES ovarian) was 13 µM and the GI50 (OVCAR-3 ovarian) was 5.07 µM. It also gave a TGI (OVCAR-3 ovarian) of 12.8 µM, a GI50 (OVCAR-4 ovarian) of 8.09 µM and a TGI (OVCAR-4 ovarian) greater than 34.5 µM. For the same compound, the GI50 (OVCAR-5 ovarian) was 7 µM, the TGI (OVCAR-5 ovarian) was 24.5 µM and the GI50 (OVCAR-8 ovarian) was 6.06 µM. The TGI (OVCAR-8 ovarian) was 19.3 µM, the GI50 (PC-3 prostate) was 3.6 µM and the TGI (PC-3 prostate) was greater than 34.5 µM. The GI50 (RPMI-8226 leukemia) was 6.69 µM, the TGI (RPMI-8226 leukemia) was greater than 34.5 µM and the GI50 (RXF 393 renal) was 3.8 µM. For the same compound, the TGI (RXF 393 renal) was 9.29 µM, the GI50 (SF-268 CNS) was 6.2 µM and the TGI (SF-268 CNS) was 24.4 µM. It also gave a GI50 (SF-295 CNS) of 5.79 µM, a TGI (SF-295 CNS) of 21.6 µM and a GI50 (SF-539 CNS) of 7.93 µM. It also gave a TGI (SF-539 CNS) of 20.2 µM, a GI50 (SK-MEL-2 melanoma) of 5.59 µM and a TGI (SK-MEL-2 melanoma) of 12.4 µM. It also gave a GI50 (SK-MEL-28 melanoma) of 6.28 µM, a TGI (SK-MEL-28 melanoma) of 15.7 µM and a GI50 (SK-MEL-5 melanoma) of 5.41 µM. It also gave a TGI (SK-MEL-5 melanoma) of 10.8 µM, a GI50 (SK-OV-3 ovarian) of 9.66 µM and a TGI (SK-OV-3 ovarian) greater than 34.5 µM. For the same compound, the GI50 (SN12C renal) was 4.46 µM, the TGI (SN12C renal) was 9.03 µM and the GI50 (SNB-19 CNS) was 9.14 µM. The TGI (SNB-19 CNS) was greater than 34.5 µM, the GI50 (SNB-75 CNS) was 4.2 µM and the TGI (SNB-75 CNS) was 25 µM. It also gave a GI50 (SR leukemia) of 5.17 µM, a TGI (SR leukemia) of 16.3 µM and a GI50 (SW-620 colon) of 6.55 µM. It also gave a TGI (SW-620 colon) of 19 µM, a GI50 (T-47D breast) of 4.05 µM and a TGI (T-47D breast) greater than 34.5 µM. The GI50 (TK-10 renal) was 8.22 µM, the TGI (TK-10 renal) was 28.5 µM and the GI50 (U251 CNS) was 5.72 µM. The TGI (U251 CNS) was 13.9 µM, the GI50 (UACC-257 melanoma) was 5.86 µM and the TGI (UACC-257 melanoma) was 17.6 µM. For the same compound, the GI50 (UACC-62 melanoma) was 3.45 µM, the TGI (UACC-62 melanoma) was 7.98 µM and the GI50 (UO-31 renal) was 4.99 µM. It also gave a TGI (UO-31 renal) of 20.8 µM.
